Measured values reported in patent US8211915B2, “Biphenyl compounds useful as muscarinic receptor antagonists” (Theravance, Inc., priority 2004, dated 2012).

Biological target: T1, hM3 muscarinic receptor subtype (Homo sapiens, UniProt P20309)
T1 construct: expressed in transfected cells; crude membranes prepared in house
Experiment: Radioligand binding assay ([3H]-NMS displacement)
Details: [3H]-NMS 1 nM, CHO cell membranes, 60 minutes at 37° C.; read-out: Ki value for the M3 muscarinic receptor subtype
Protocol: A. Membrane Preparation from Cells Expressing hM1, hM2, hM3 and hM4 Muscarinic Receptor Subtypes
CHO cell lines stably expressing cloned human hM1, hM2, hM3 and hM4 muscarinic receptor subtypes, respectively, were grown to near confluency in medium consisting of HAM's F-12 supplemented with 10% FBS and 250 μg/mL Geneticin. The cells were grown in a 5% CO2, 37° C. incubator and lifted with 2 mM EDTA in dPBS. Cells were collected by 5 minute centrifugation at 650×g, and cell pellets were either stored frozen at −80° C. or membranes were prepared immediately. For membrane preparation, cell pellets were resuspended in lysis buffer and homogenized with a Polytron PT-2100 tissue disrupter (Kinematica AG; 20 seconds×2 bursts). […] The protein concentration of the membrane suspension was determined by the method described in Lowry, O. et al., […] 193:265 (1951). […]
Radioligand binding assays were performed in 96-well microtiter plates in a total assay volume of 100 μL. […] Filter plates were rinsed three times with wash buffer (10 mM HEPES) to remove unbound radioactivity. […] The plates were then counted in a PerkinElmer Topcount liquid scintillation counter (PerkinElmer Inc., Wellesley, Mass.). Binding data were analyzed by nonlinear regression analysis with the GraphPad Prism Software package (GraphPad Software, Inc., San Diego, Calif.) using the one-site competition model. […]

T1 sequence (P20309 whole entry): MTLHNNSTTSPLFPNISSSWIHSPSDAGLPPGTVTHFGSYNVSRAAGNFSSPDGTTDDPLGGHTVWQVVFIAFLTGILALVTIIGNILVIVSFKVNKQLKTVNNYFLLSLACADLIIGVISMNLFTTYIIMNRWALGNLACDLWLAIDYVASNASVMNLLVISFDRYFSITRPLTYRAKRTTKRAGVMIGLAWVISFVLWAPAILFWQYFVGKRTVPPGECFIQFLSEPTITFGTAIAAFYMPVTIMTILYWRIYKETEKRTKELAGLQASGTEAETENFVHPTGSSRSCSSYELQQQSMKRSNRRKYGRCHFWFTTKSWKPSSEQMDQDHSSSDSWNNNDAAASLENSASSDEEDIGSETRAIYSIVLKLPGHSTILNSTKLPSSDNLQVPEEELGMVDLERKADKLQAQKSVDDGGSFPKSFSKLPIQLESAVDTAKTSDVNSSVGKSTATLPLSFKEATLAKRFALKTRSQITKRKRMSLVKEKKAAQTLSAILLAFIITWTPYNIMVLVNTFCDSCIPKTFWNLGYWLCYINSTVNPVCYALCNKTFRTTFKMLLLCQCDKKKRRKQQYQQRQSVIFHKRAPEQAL

NC(=O)C1CCN(Cc2ccc(NC(=O)CCN3CCC(OC(=O)Nc4ccccc4-c4ccccc4)CC3)cc2)CC1 [Example 1, Biphenyl-2-ylcarbamic Acid 1-{2-[4-(4-Carbamoylpiperidin-1-ylmethyl)phenylcarbamoyl]ethyl}piperidin-4-yl Ester]
Ki: < 5 nM
